Data reported in PubChem BioAssay AID1259407 (Chemical Carcinogenesis Research Information System (CCRIS), 2018).
The source made the active and inactive calls. How the calls were made is not given here.

Test system: CCRIS mutagenicity, Ames/micronucleus/aberration tests
Experiment: CCRIS mutagenicity studies
[1] = Test System: AMES SALMONELLA TYPHIMURIUM, Strain/Indicator: TA98, Metabolic Activation: NONE, Method: STANDARD PLATE
[2] = Test System: AMES SALMONELLA TYPHIMURIUM, Strain/Indicator: TA100, Metabolic Activation: NONE, Method: STANDARD PLATE
[3] = Test System: AMES SALMONELLA TYPHIMURIUM, Strain/Indicator: TA1535, Metabolic Activation: NONE, Method: STANDARD PLATE
[4] = Test System: AMES SALMONELLA TYPHIMURIUM, Strain/Indicator: TA1537, Metabolic Activation: NONE, Method: STANDARD PLATE

For Clc1cc(Cl)nc(Cl)n1, the mutagenic call (Test System: AMES SALMONELLA TYPHIMURIUM, Strain/Indicator: TA98, Metabolic Activation: HAMSTER, LIVER, S-9, AROCLOR 1254, Method: STANDARD PLATE) was “inactive; negative”, the mutagenic call [1] was “inactive; negative” and the mutagenic call (Test System: AMES SALMONELLA TYPHIMURIUM, Strain/Indicator: TA98, Metabolic Activation: RAT, LIVER, S-9, AROCLOR 1254, Method: STANDARD PLATE) was “inactive; negative”. The mutagenic call (Test System: AMES SALMONELLA TYPHIMURIUM, Strain/Indicator: TA100, Metabolic Activation: HAMSTER, LIVER, S-9, AROCLOR 1254, Method: STANDARD PLATE) was “inactive; negative”, the mutagenic call [2] was “inactive; negative” and the mutagenic call (Test System: AMES SALMONELLA TYPHIMURIUM, Strain/Indicator: TA100, Metabolic Activation: RAT, LIVER, S-9, AROCLOR 1254, Method: STANDARD PLATE) was “inactive; negative”. For the same molecule, the mutagenic call (Test System: AMES SALMONELLA TYPHIMURIUM, Strain/Indicator: TA1535, Metabolic Activation: HAMSTER, LIVER, S-9, AROCLOR 1254, Method: STANDARD PLATE) was “inactive; negative”, the mutagenic call [3] was “inactive; negative” and the mutagenic call (Test System: AMES SALMONELLA TYPHIMURIUM, Strain/Indicator: TA1535, Metabolic Activation: RAT, LIVER, S-9, AROCLOR 1254, Method: STANDARD PLATE) was “inactive; negative”. For the same molecule, the mutagenic call (Test System: AMES SALMONELLA TYPHIMURIUM, Strain/Indicator: TA1537, Metabolic Activation: HAMSTER, LIVER, S-9, AROCLOR 1254, Method: STANDARD PLATE) was “inactive; negative”, the mutagenic call [4] was “inactive; negative” and the mutagenic call (Test System: AMES SALMONELLA TYPHIMURIUM, Strain/Indicator: TA1537, Metabolic Activation: RAT, LIVER, S-9, AROCLOR 1254, Method: STANDARD PLATE) was “inactive; negative”. The mutagenic call (Test System: AMES SALMONELLA TYPHIMURIUM, Strain/Indicator: TA1538, Metabolic Activation: HAMSTER, LIVER, S-9, AROCLOR 1254, Method: STANDARD PLATE) was “inactive; negative”, the mutagenic call (Test System: AMES SALMONELLA TYPHIMURIUM, Strain/Indicator: TA1538, Metabolic Activation: NONE, Method: STANDARD PLATE) was “inactive; negative” and the mutagenic call (Test System: AMES SALMONELLA TYPHIMURIUM, Strain/Indicator: TA1538, Metabolic Activation: RAT, LIVER, S-9, AROCLOR 1254, Method: STANDARD PLATE) was “inactive; negative”. For the same molecule, the mutagenic call (Test System: Mouse lymphoma, Strain/Indicator: L5178Y (tk+/tk-), Metabolic Activation: None, Method: Suspension/plate) was “active; inconclusive (previous evaluation positive)” and the mutagenic call (Test System: Mouse lymphoma, Strain/Indicator: L5178Y (tk+/tk-), Metabolic Activation: Rat, Liver, S-9, Aroclor 1254, Method: Suspension/plate) was “active; positive”.
In the case of C=C1C[C@@]23CCC4[C@](C)(C(=O)O)CCC[C@@]4(C)[C@@H]2CC[C@]1(OC(C)=O)C3 (some centres not stated), the mutagenic call (Test System: AMES SALMONELLA TYPHIMURIUM, Strain/Indicator: TM677, Metabolic Activation: RAT, LIVER, S-9, AROCLOR 1254, Method: PREINCUBATION) was “inactive; negative”.
In the case of O=[N+]([O-])c1cc2c3c(c1)CCc1cc([N+](=O)[O-])cc(c1-3)CC2, the mutagenic call (Test System: AMES SALMONELLA TYPHIMURIUM, Strain/Indicator: TA98(1,8-DNP6), Metabolic Activation: NONE, Method: STANDARD PLATE) was “active; positive”, the mutagenic call (Test System: AMES SALMONELLA TYPHIMURIUM, Strain/Indicator: TA98(NR), Metabolic Activation: NONE, Method: STANDARD PLATE) was “active; positive” and the mutagenic call [1] was “active; positive”.
In the case of Clc1ccnc2ccccc12, the mutagenic call (Test System: AMES SALMONELLA TYPHIMURIUM, Strain/Indicator: TA100, Metabolic Activation: RAT, LIVER, S-9, PHENOBARBITAL AND 5,6-BENZOFLAVONE, Method: PREINCUBATION) was “active; positive”.
With Cc1cn(/C=C/C=O)c(=O)[nH]c1=O the mutagenic call (Test System: AMES SALMONELLA TYPHIMURIUM, Strain/Indicator: HISD3052, Metabolic Activation: NONE, Method: STANDARD PLATE) was “active; positive”.
In the case of O=Nc1cccc(-c2ccccc2)c1, the mutagenic call [1] was “active; positive” and the mutagenic call [2] was “active; positive”.
CN(C)CCNC(=O)c1cccc2oc(-c3ccccc3)nc12 was tested, and the mutagenic call [4] was “inactive; negative”.
For CC(=O)Nc1snc2c(Cl)cc(Cl)cc12, the mutagenic call [1] was “inactive; negative”, the mutagenic call (Test System: AMES SALMONELLA TYPHIMURIUM, Strain/Indicator: TA98, Metabolic Activation: S-9, Method: STANDARD PLATE) was “inactive; negative” and the mutagenic call [2] was “inactive; negative”. The mutagenic call (Test System: AMES SALMONELLA TYPHIMURIUM, Strain/Indicator: TA100, Metabolic Activation: S-9, Method: STANDARD PLATE) was “inactive; negative”, the mutagenic call [3] was “inactive; negative” and the mutagenic call (Test System: AMES SALMONELLA TYPHIMURIUM, Strain/Indicator: TA1535, Metabolic Activation: S-9, Method: STANDARD PLATE) was “inactive; negative”. The mutagenic call [4] was “inactive; negative” and the mutagenic call (Test System: AMES SALMONELLA TYPHIMURIUM, Strain/Indicator: TA1537, Metabolic Activation: S-9, Method: STANDARD PLATE) was “inactive; negative”.
COC(=O)Nc1nc2ccc(S(=O)c3ccccc3)cc2[nH]1 (configuration not stated) was tested, and the mutagenic call (End Point: In vivo chromosomal aberrations, Test System: Bone marrow cells, Species: Mouse, Strain/Sex: Swiss /Female, Route: Oral) was “active; positive (structural changes and ploidy)”, the mutagenic call (End Point: In vivo chromosomal aberrations, Test System: Bone marrow cells, Species: Mouse, Strain/Sex: Swiss /Male, Route: Oral) was “active; positive (structural changes and ploidy)” and the mutagenic call (End Point: In vivo chromosomal aberrations, Test System: Spermatocytes, Species: Mouse, Strain/Sex: Swiss /Male, Route: Oral) was “active; positive (ploidy)”.
